Square brackets hold non-standard residues; d marks the D form. Peptide text beside a SMILES is read from it. * marks the point of attachment. EDDnp = O=[N+]([O-])c1ccc(NCCN*)c([N+](=O)[O-])c1; Dnp = O=[N+]([O-])c1ccc(*)c([N+](=O)[O-])c1; 2Abz = Nc1ccccc1C(=O)O
Tests used:
Type in all cases: biochemical
[1] = molecular target: T1, secPHEX (Homo sapiens, UniProt P78562); assay: secPHEX activity with NEP-specific substrate and inhibitor; settings: 10 μM substrate, 30 minutes
T1 construct: pure soluble form of PHEX (secPHEX); made in house
T1 sequence (P78562 46-749 limits assumed): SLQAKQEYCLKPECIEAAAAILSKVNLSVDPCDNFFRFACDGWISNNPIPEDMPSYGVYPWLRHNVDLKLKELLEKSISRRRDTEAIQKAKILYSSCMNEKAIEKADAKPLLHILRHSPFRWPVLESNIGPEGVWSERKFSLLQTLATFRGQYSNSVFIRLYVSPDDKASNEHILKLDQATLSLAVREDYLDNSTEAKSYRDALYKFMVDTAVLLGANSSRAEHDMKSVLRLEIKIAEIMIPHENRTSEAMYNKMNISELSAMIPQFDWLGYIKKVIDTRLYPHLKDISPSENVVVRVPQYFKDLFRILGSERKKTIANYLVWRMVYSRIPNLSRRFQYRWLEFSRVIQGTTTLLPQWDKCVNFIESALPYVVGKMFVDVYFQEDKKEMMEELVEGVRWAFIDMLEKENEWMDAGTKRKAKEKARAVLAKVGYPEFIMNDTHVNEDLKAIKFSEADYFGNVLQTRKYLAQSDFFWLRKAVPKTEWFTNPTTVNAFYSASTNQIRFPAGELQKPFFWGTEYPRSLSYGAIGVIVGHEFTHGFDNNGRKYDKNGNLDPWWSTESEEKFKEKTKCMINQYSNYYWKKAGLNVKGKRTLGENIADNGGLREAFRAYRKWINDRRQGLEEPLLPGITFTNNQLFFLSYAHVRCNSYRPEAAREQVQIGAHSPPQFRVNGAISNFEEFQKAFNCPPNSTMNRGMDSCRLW
Procedure: (§1) FIG. 4 graphically illustrates the activity of PHEX in the presence of NEP-specific substrate and inhibitor. NEP, secPHEX and membrane-bound PHEX (mPHEX) activities were measured after 30 minutes of incubation in presence of either 10 μM Abz-DRRL-EDDnp (SEQ ID NO:8) (A) or 10 μM Abz-GFSDYK(Dnp)-OH (SEQ ID NO:3) (B). Fluorescence detection (AFU) at γem=420 nm and γex=320 nm was determined as described under the heading “Experimental Procedures” below. When present, thiorphan, a NEP-specific inhibitor, was at a concentration of 10^−6 M. Data are a compilation of three different experiments;
(§2) The activities of membrane-bound PHEX and secPHEX were also compared with the NEP-specific substrate Abz-DRRL-EDDnp (SEQ ID NO:8) (46).

[2] = molecular target: T2, membrane-bound PHEX (mPHEX) (Homo sapiens, UniProt P78562); assay: Membrane-bound PHEX activity with NEP-specific substrate and inhibitor; settings: 10 μM substrate, 30 minutes
T2 construct: expressed in transfected cells; host or cells: LLC-PK1 (porcine kidney cells)
Procedure: as §1, §2

[3] = molecular target: T1, secPHEX; assay: pH activity profile and NaCl dependence of secPHEX hydrolysis
Procedure: FIG. 2 graphically illustrates pH and NaCl (inset) dependence of Abz-GFSDYK(Dnp)-OH (SEQ ID NO:3) hydrolysis by secPHEX. * k,t/Km values for the hydrolysis of Abz-GFSDYK(Dnp)-OH (SEQ ID NO:3) by PHEX were determined in presence of different buffers and pH conditions as described herein under the heading “Experimental Procedures” below. In the inset, the effect of NaCl is shown: Abz-GFSDYK(Dnp)-OH (SEQ ID NO:3) was incubated with secPHEX in 0.01 M Bis-Tris buffer, pH 5.5 with NaCl (0 to 0.5 M);
The pH dependence was studied using […] of Abz-GFSDYK(Dnp)-OH (SEQ ID NO:3) over a pH range of 3.5 to 8.5. The buffers used were as follows: 0.01 M sodium acetate (3.5<pH<5.1), 0.01 M Bis-Tris (5.1<pH<6.5), 0.01 M Hepes (6.5<pH<7.4) and 0.01 M Tris-HCI (7.4<pH<8.4), containing 0.14 M NaCl. Enzymatic activity was followed at 37° C. using the continuous fluorimetric assay and the apparent second-order rate constant (*kcat/Km) was calculated as described above for each pH.
The influence of salt on secPHEX catalytic activity was investigated using 0.2 μM of Abz-GFSDYK(Dnp)-OH (SEQ ID NO:3) as substrate at 37° C., in 0.01 M Bis-Tris buffer, pH 5.5, over a NaCl range of 0 to 500 mM. The increase in fluorescence was continuously measured at 37° C. and the apparent second-order rate constant (*kcat/Km) for the different NaCl concentrations was calculated as described above.

[4] = molecular target: T1, secPHEX; assay: Determination of secPHEX activity and concentration in serum with fluorigenic substrate; settings: activity determination in serum
Procedure: FIG. 6 graphically illustrates the secPHEX enzymatic activity on a fluorigenic substrate of the present invention in rat serum. The observed fluorescence increase was proportional to the reaction product formation. The reaction was carried out in a total volume of 200 μl constituted of buffer: 50 mM Hepes (NaOH) pH 7.4, 150 mM NaCl, 5*10−6 M captopril (ACE inhibitor), containing 10 μl of rat serum in which purified sPHEX was spiked. The enzymatic reaction was initiated by the addition of the fluorigenic substrate (Abz-GFSDYK-Dnp) (SEQ ID NO:3) at a final concentration of 20 μM. The fluorescent reaction product was excited at 320 nm and fluorescence recorded at 420 nm every four minutes over a one-hour period in a 96-well plate reader (Perkin-Elmer, HTS-7000). The initial enzymatic speed rate of the reaction was calculated for each condition. The reaction was carried out in presence of 5 mM EDTA to assess whether the assay is specific to metallopeptidase. Measurements were done in duplicates.
secPHEX enzymatic activity was determined using a fluorigenic substrate where increase of fluorescence was proportional to substrate conversion to products. […] Of these, S3 was the most preferred substrate. […]
The reaction was carried out in a total volume of 200 μl constituted of buffer (50 mM Mes(NaOH) pH 6.5, 150 mM NaCl, 5×10^−6 M captopril (ACE inhibitor)) and serum (preferably between 2 to 50 μl). […] The fluorescent reaction product is excited at 320 nm with fluoresce emission read at 420 nm every four minutes over a one-hour period using 96-well plate reader (Perikin-Elmer, HTS-7000™). The initial reaction rate was calculated from the acquired fluorescence-time data as a slope using Microsoft Excell™. PHEX Enzymatic activity (Vi) was calculated by subtracting to the initial rate of fluorescence (Vitot) with the same measured in presence of EDTA 5 mM (ViEDTA). […]
The actual secPHEX concentration was determined from a calibration curve (Vi Vs secPHEX concentration) obtained by serial dilution of secPHEX in serum or other biological media as required.

[5] = molecular target: T1, secPHEX; assay: IC50 determination of PHEX inhibitor, fluorigenic substrate assay
Procedure: secPHEX enzymatic activity was determined using a fluorigenic substrate where increase of fluorescence was proportional to substrate conversion to products. […] Of these, S3 was the most preferred substrate. S3 was synthesized as described above.
The reaction was carried out in a total volume of 200 μl constituted of buffer (50 mM Mes(NaOH) pH 6.5, 150 mM NaCl) containing various concentrations of the tested PHEX inhibitor (3×10^−5 to 1×10^−11 M) and 100 ng of purified secPHEX. The enzymatic reaction was initiated with the addition of the fluorigenic substrate at a final concentration of 10 μM. The fluorescent reaction product was excited at 320 nm with fluoresce emission read at 420 nm every four minutes over a one-hour period using 96-well plate reader (Perkin-Elmer, HTS-7000™). The initial reaction rate was calculated from the acquired fluorescence-time data as a slope using Microsoft Excell™. Further examples can be found in the co-pending PCT application number PCT/CA03/01893.
IC50 was determined with a plot of the initial rates computed above as a function of inhibitor concentration using the one site competition equation of GraphPad Prism™ version 3.03 (GraphPad™ Software Inc.).

T2 sequence (P78562 whole entry): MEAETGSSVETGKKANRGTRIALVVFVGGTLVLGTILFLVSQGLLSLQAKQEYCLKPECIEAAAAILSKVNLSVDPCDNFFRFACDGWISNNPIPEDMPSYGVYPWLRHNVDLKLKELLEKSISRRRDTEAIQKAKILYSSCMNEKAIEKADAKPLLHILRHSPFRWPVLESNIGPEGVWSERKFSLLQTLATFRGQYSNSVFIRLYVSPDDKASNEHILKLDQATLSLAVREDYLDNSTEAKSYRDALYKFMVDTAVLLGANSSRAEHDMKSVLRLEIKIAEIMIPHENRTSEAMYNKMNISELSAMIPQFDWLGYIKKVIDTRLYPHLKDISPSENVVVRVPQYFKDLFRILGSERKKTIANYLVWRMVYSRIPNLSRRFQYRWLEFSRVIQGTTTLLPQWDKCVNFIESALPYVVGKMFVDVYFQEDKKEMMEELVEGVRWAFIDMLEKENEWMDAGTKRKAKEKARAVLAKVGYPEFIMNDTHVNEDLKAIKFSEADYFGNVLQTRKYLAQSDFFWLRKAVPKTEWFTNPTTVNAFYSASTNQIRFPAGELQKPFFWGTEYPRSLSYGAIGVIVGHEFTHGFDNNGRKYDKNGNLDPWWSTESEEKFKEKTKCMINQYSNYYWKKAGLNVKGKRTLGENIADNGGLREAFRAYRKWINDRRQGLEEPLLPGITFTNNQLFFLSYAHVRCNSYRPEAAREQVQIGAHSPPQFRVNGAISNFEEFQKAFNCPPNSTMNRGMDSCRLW

Compound: CC(C)C[C@H](NC(=O)[C@H](CCCNC(=N)N)NC(=O)[C@H](CCCNC(=N)N)NC(=O)[C@H](CC(=O)O)NC(=O)c1ccccc1N)C(=O)NCCNc1ccc([N+](=O)[O-])cc1[N+](=O)[O-] [Abz-DRRL-EDDnp] (H-[2Abz]DRRL-EDDnp)
- hydrolysis of NEP-specific substrate [1]: Neither enzyme hydrolyzed this substrate
- hydrolysis of NEP-specific substrate [2]: Neither enzyme hydrolyzed this substrate

Compound: Nc1ccccc1C(=O)NCC(=O)N[C@@H](Cc1ccccc1)C(=O)N[C@@H](CO)C(=O)N[C@@H](CC(=O)O)C(=O)N[C@@H](Cc1ccc(O)cc1)C(=O)N[C@@H](CCCCNc1ccc([N+](=O)[O-])cc1[N+](=O)[O-])C(=O)O [I-Abz-GFS↓DYK(Dnp)-OH, Abz-GFSDYK(Dnp)-OH] (H-[2Abz]GFSDYK(Dnp)-OH)
- kcat/Km with 150 mM NaCl lower than in the absence of added salt ([3]; 10 mM Bis Tris, pH 5,5): more than 2 fold
- pH of maximum kcat/Km ([3]; pH range of 3.5 to 8.5, 37° C.): ~5.5
- suitability as secPHEX substrate [4]: good secPHEX substrate
- suitability as secPHEX substrate [5]: good secPHEX substrate

Reference: patent publication US20060292657A1, “Phex substrates and methods using same” (priority 2003, published 2006)
